Reference: patent US11992010B2, “Use of 4-(phenylethynyl) benzoic acid” (China Jiliang University, priority 2022, dated 2024)

How the values were obtained:
tomato seeds = assay: Seed germination experiment on tomato; type: in vivo, Solanum lycopersicum CV. Zhefen 202; settings: 50 μM
Description: (§1) The seeds of Arabidopsis wild type (Arabidopsis thaliana L. Columbia, Col-0 ecotype) were provided by the lab of plant quality & safety biology in China Jiliang university. The commercial tomato seeds (Solanum lycopersicum CV. Zhefen 202) were provided by Zhejiang Academy of Agricultural Sciences.
(§2) The 4-(Phenylethynyl) benzoic acid solutions were prepared as follows: 22.9 mg 4-(Phenylethynyl) benzoic acid was weighted and dissolved in 1 mL DMSO to make the 100 mM 4-(Phenylethynyl) benzoic acid mother solution. The working solutions applied were prepared by diluting the 4-(phenylethynyl) benzoic acid mother solution with water. For example, the 4-(Phenylethynyl) benzoic acid treatment solutions at the concentrations of 1 μM, 10 μM, and 50 μM were prepared by diluting 1 μL of the 100 mM 4-(phenylethynyl) benzoic acid mother solution to 100 mL, 10 mL, or 2 mL with water. DMSO was supplemented to a final concentration of 0.05% (V:V).
(§3) 0.05% DMSO water solution then used as a control solution.
For tomato, 80 seeds were sowed on two layers of filter papers in a 6-cm-diameter Petri dish with germination liquids. 4-(Phenylethynyl) benzoic acid treatment solution at the concentration of 50 μM and 0.05% DMSO water solution (Control) were used as the germination liquids. There were three replicates for each treatment. After germination for 24 h, 36 h, 48 h, 60 h, 72 h, 84 h in a growth chamber (25° C.), the germination rate (the proportion of the total number of the seeds germinated corresponding to each time point after the start of the germination experiment to the total number of seeds to be tested) was calculated, respectively. The germination rate at 48 h was adopted as the germination potential (the proportion of the total number of the seeds germinated corresponding to 48 h after the start of the germination experiment to the total number of seeds to be tested).

rice radicle = assay: Rice radicle elongation; type: in vivo, Oryza sativa L. Datian Nip
Description: Rice cultivar (Oryza sativa L. Datian Nip) was provided by Zhejiang Academy of Agricultural Sciences.
Every 1 μL 4-(Phenylethynyl) benzoic acid mother solution in Example 1 was diluted with water to 2 mL or 500 μL to prepare 50 μM or 200 μM 4-(Phenylethynyl) benzoic acid treatment solutions. 0.05% DMSO water solution was used as the control solution for 50 μM 4-(Phenylethynyl) benzoic acid treatment solution and 0.2% DMSO water solution was used as the control solution for 200 μM 4-(Phenylethynyl) benzoic acid treatment solution respectively.
A volume of 10 ml 4-(Phenylethynyl) benzoic acid treatment solutions at various concentrations were added to 9-cm-diameter Petri dishes with two layers of filter papers. 100 seeds were placed on the moist filter paper in a Petri dish. 0.05% DMSO water solution was used as control for 50 μM 4-(Phenylethynyl) benzoic acid treatment solution. 0.2% DMSO water solution was used as control for 200 μM 4-(Phenylethynyl) benzoic acid treatment solution. There were three replicates for each treatment. Seeds were germinated under light at 28° C. The seeds that germinated between the second and the third day after imbibition were chosen and their radicle length were measured on the fifth day.

stomata of tomato leaves = assay: Stomata closure in abaxial epidermal strips of tomato; type: cell-based, Solanum lycopersicum CV. Zhefen 202; settings: 50 μM, 3 hours, compared to the control
Description: The commercial tomato seeds (Solanum lycopersicum CV. Zhefen 202) were provided by Zhejiang Academy of Agricultural Sciences.
The concentration of 4-(Phenylethynyl) benzoic acid used in this example was 50 μM. Every 1 μL of the 100 mM 4-(Phenylethynyl) benzoic acid mother solution in Example 1 was diluted to 2 mL with MES-KCl buffer (10 mM MES, 50 mM KCl, pH 6.15). 0.5% Tween-80 (V:V) was added to increase the solubility and stability of 4-(Phenylethynyl) benzoic acid. The solution was mixed evenly by stirring efficiently and it was ensured that no 4-(phenylethynyl) benzoic acid was precipitated, and finally 50 μM 4-(phenylethynyl) benzoic acid was prepared.
The control solution was the MES-KCl buffer containing 0.05% DMSO and 0.5% Tween-80.
Abaxial epidermal strips of tomato were firstly peeled from washed leaves, then immersed in MES-KCl buffer (10 mM MES, 50 mM KCl, pH 6.15) under light at 28° C. to induce stomatal opening. After 2 hours, abaxial epidermal strips of tomato were treated with the control solution (MES-KCl buffer with 0.05% DMSO and 0.5% Tween-80) and 50 μM 4-(Phenylethynyl) benzoic acid treatment solution (MES-KCl buffer with 50 μM 4-(Phenylethynyl) benzoic acid, 0.05% DMSO and 0.5% Tween-80) for 3 hours, respectively. […] Widths and lengths of stomata were measured and the aperture ratios (width:length) were calculated. […]

Arabidopsis seeds = assay: Seed germination experiment on Arabidopsis; type: in vivo, Arabidopsis thaliana L. Columbia, Col-0 ecotype; settings: for Germination potential/% (48 h): control 45.31 ± 6.63; for Ultimate germination rate/%: control 88.32 ± 1.15
Description: as §1, §2, §3
Arabidopsis seeds were soaked in 4-(Phenylethynyl) benzoic acid treatment solutions at the concentrations of 1 μM, 10 μM, and 50 μM for 3 days under dark at 4° C., respectively. Seeds soaked in the 0.05% DMSO water solution were used as control. On the fourth day, Seeds were transformed to light at 25° C. in 2-cm-diameter Petri dishes with two layers of filter papers. Different concentrations of 4-(Phenylethynyl) benzoic acid treatment solutions were added as germination liquids. 0.05% DMSO water solution was used as control. 30-50 seeds were placed on the moist filter paper in a Petri dish. There were three replicates for each treatment. After germination for 30 h, 42 h, 48 h, and 66 h in a growth chamber (25° C.), the germination rate (the proportion of the total number of the seeds germinated corresponding to each time point after the start of the germination experiment to the total number of seeds to be tested) was calculated, respectively. The germination rate at 48 h was adopted as the germination potential (the proportion of the total number of the seeds germinated corresponding to 48 h after the start of the germination experiment to the total number of seeds to be tested).

O=C(O)c1ccc(C#Cc2ccccc2)cc1 [4-(Phenylethynyl) benzoic acid]
tomato seeds germination (in words) (tomato seeds; compared to the control): significantly inhibited the germination process and reduced the germination rate | Germination potential/% (48 h) (tomato seeds; Tomato, 48 h, control 20.83 ± 1.90): 0.00 ± 0.00 b % | Ultimate germination rate/% (tomato seeds; Tomato, control 88.75 ± 6.25): 10.41 ± 2.88 b % | rice radicle elongation (in words) (rice radicle; 50 μM and 200 μM, relative to their controls, 200 μM significantly better than 50 μM): significantly inhibited rice radicle elongation | activity at 50 µM (rice radicle; Oryza sativa, rice, 50 μM, control 0.05% DMSO, read-out: radicle length, % of control treatment): 48.2% | activity at 200 µM (rice radicle; Oryza sativa, rice, 200 μM, control 0.2% DMSO, read-out: radicle length, % of control treatment): 20.3% | aperture ratio (width:length) (in words) (stomata of tomato leaves): significantly reduced | stomata aperture (in words) (stomata of tomato leaves): significantly reduced | germination of Arabidopsis seeds (in words) (Arabidopsis seeds; 10 μM and 50 μM, 50 μM exhibited a stronger effect): significantly slowed down the germination | Germination potential/% (48 h) (Arabidopsis seeds; Arabidopsis, 1 μM): 37.50 ± 7.50 a % | Ultimate germination rate/% (Arabidopsis seeds; Arabidopsis, 1 μM): 92.33 ± 0.29 a % | decrease in germination potential (Arabidopsis seeds; Arabidopsis, 10 μM): > 20% | Germination potential/% (48 h) (Arabidopsis seeds; Arabidopsis, 10 μM): 14.53 ± 6.40 b % | Ultimate germination rate/% (Arabidopsis seeds; Arabidopsis, 10 μM): 85.24 ± 7.41 a % | germination rate reduction ultimately (Arabidopsis seeds; Arabidopsis, 50 μM): > 80% | Ultimate germination rate/% (Arabidopsis seeds; Arabidopsis, 50 μM): 2.30 ± 3.98 b %
